This test has as its target T1, fungal tyrosinase.
T1 construct: gene PPO3; only 'fungal' printed
Description: L-DOPA oxidation, […] nm. Type of test: biochemical. The conditions noted are these: L-DOPA substrate, pH 6.8, room temperature.

Turning to `O=c1cc(CO)occ1O` [Kojic acid], the “Tyrosinase / IC50” value worked out at 23.80 ± 0.25 µg/mL.
